What was measured:
KCC2 mRNA = KCC2 mRNA RT-qPCR in rat primary cortical neurons; format: cell-based; settings: primary rat cortical neurons; 0.1, 0.2, 0.5 μM KP
Procedure: Total RNA was isolated from cultured cell samples using Directzol RNA miniprep kit (ZymoResearch). The protocol includes DNAse digestion to exclude genomic DNA from preparations. Total RNA (1 μg) was reverse transcribed using oligo primers (dT) and SuperScriptIII first-strand synthesis kit (Invitrogen). Gene expression was assessed by quantitative real-time PCR using 2×SYBR Green Master Mix (Qiagen) and a three-step cycling protocol (anneal at 60° C./elongate at 72° C., denature at 95° C.). Specificity of primers was verified by dissociation/melting curve for the amplicons when using SYBR Green as a detector. All reactions were performed in triplicates. The amount of target messenger RNA (mRNA) in the experimental group relative to that in the control was determined from the resulting fluorescence and threshold values (Ct) using the ΔΔCt method. βIII-tubulin was used as housekeeping gene. oligodT-initiated reverse transcription of 1 μg total RNA, DNA-se treated, was subjected to RT-qPCR using primers specific for KCC2 for rat and KCC2 for human sequences, normalized for neuronal βIII-tubulin, as previously described (Yeo et al., 2009, J Neurosci 29:14652-14662). For cultured neurons, total RNA was extracted from pelleted cells, and for spinal cord tissue it was extracted from microdissected lumbar spinal cord dorsal horn.

EGABA = assay: Perforated patch EGABA in SCDH lamina-II neurons of treated mice; format: in vivo, mouse; settings: slices of PSNL juvenile mice treated with KP 30 mg/kg
GSK3β = target: T1, GSK3β (Rattus norvegicus, UniProt P18266); assay: DARTS assay, GSK3β; format: binding; settings: 20 μM KP; independent of detergent treatment
T1 construct: endogenous in cells; host or cells: primary rat cortical neurons
Procedure: Cultured primary rat cortical neurons were treated with either vehicle DMSO (0.1%) or 20 μM KP for 30 h. Cells were lysed in ice-cold lysis buffer (Tris.Cl pH8 50 mM, NaCl 150 mM, NP40 0.5%, N-dodecyl-b-D-maltoside 0.5%, Phosphatase Inhibitor (Pierce #88667) and Protease Inhibitor (Roche #11836153001)). Protein concentrations were determined by Bio-Rad DC Protein Assay kit using bovine albumin as standard. All steps were performed on ice. Samples were warmed to room temperature and digested with pronase (final concentration 1:500) for 30 min at 30° C. Digestion was halted using 0.5M EDTA. Only proteins not bound to KP were digested. The protein mixture was dialyzed using dialysis cassettes (Thermo Fisher 66203, 2K MWCO) and analyzed by LC-MS/MS method to identify proteins that are bound to KP, the latter step carried out in the Duke Proteomics Core Laboratory.
A drug affinity responsive target stability (DARTS) assay (Lomenick, et al., 2009, Proc Natl Acad Sci USA 106:21984-21989) was used to study direct binding of KP to GSK3ß (FIG. 8A) in primary cortical neurons. The findings were consistent with previous reports in cell lines (Knockaert, et al., 2002, The Journal of biological chemistry 277:25493-25501) yet novel in primary neurons. […]

T1 sequence (P18266 whole entry): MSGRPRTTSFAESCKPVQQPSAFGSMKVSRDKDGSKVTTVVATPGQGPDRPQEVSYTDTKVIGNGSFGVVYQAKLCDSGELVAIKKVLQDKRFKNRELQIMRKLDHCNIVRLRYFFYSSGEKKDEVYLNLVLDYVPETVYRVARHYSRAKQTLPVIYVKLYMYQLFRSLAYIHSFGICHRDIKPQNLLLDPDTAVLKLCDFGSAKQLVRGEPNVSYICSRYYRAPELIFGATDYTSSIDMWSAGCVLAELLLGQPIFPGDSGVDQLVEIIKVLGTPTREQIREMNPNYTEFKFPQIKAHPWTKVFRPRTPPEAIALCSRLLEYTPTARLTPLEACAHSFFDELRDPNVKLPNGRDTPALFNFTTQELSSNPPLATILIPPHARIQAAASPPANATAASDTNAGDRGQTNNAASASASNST

Question: What does the source list for `O=C1Cc2c([nH]c3ccc(Br)cc23)-c2ccccc2N1` [kenpaullone, 9-bromo-7,12-dihydro-indolo [3,2-d] [1]benzazepin-6(5H)-one]?
Answer: KCC2 mRNA expression (KCC2 mRNA): dose-dependent increase; EGABA (EGABA): significant hyperpolarization; binding of KP to GSK3ß (GSK3β): documented
